Laboratory results from BindingDB's records for doi:10.1016/j.bmc.2019.02.015 (2019).

Key:
[1] = Inhibition of mouse GAT-2 expressed in HEK293 cells assessed as decrease in [3H]GABA uptake preincubated for 25 mins followed by [3H]GABA addition and measured after 10 mins by scintillation counting analysis
[2] = Inhibition of mouse GAT-3 expressed in HEK293 cells assessed as decrease in [3H]GABA uptake preincubated for 25 mins followed by [3H]GABA addition and measured after 4 mins by scintillation counting analysis

Compound	IC50 [1] [µM]	IC50 [2] [µM]
O=C(O)C1CCCN(CCON=Cc2cc(F)ccc2-c2ccc(Cl)cc2Cl)C1 (stereo unspecified)	17.8	–
O=C(O)C1CCCN(CCON=Cc2sccc2-c2ccc(Cl)cc2Cl)C1 (stereo unspecified)	38	91.2
O=C(O)C1CCCN(CCON=Cc2ccccc2-c2ccc(Cl)cc2Cl)C1 (stereo unspecified)	45.7	–
O=C(O)[C@@H]1CCCN(CCON=Cc2ccccc2-c2ccc(Cl)cc2Cl)C1	42.7	57.5
